Assay [1] concerns the target T1, BS69MYND Y532A (Mus musculus, UniProt Q8R5C8, Y572A).
T1 construct: GST (N, cleaved yes); made in house; host or cells: E. coli BL21 (DE3) RIL
T1 sequence (Q8R5C8 556-602 Y572A): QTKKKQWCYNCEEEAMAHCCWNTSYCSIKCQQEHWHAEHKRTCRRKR
The assay is described as follows: ITC binding to BS69MYND Y532A. The conditions noted are these: versus BS69MYND wild type. An excerpt:
(§1) The DNA sequence encoding residues 440–562 (BS69CC-MYND) of mouse BS69/ZMYND11 was inserted into a modified PRSF-duet vector (Novagen), in which the BS69 fragments are separated from the preceding His6-SUMO tag by a ubiquitin-like protein (ULP1) cleavage site; and the DNA sequence encoding BS69 516–562 (BS69MYND) was inserted into a pGEX-6P-1 vector (GE Healthcare), preceded by a GST tag and a PreScission protease cleavage site. Note that the amino acid sequences of both fragments are identical to the corresponding regions of human BS69. The BS69MYND mutants were constructed by site-directed mutagenesis and confirmed by DNA sequencing. The plasmid was then transformed into BL21 (DE3) RIL cell strain for overexpression. The bacterial cells were grown at 37°C and induced by 0.4 mM isopropyl β-d-1-thiogalactopyranoside (IPTG) when the cells density reached an optical density (OD600) of 0.6. After induction, the cells continued to grow at 20°C for overnight. […]
(§2) The EBNA2_381–389 peptide with an additional Gly-Tyr dipeptide at the C-terminus (NH2-SMPSLEPVLGY-CONH2), the EBNA2_435–445 peptide, and the EBNA2_381–445 peptide were used for ITC assays. […] The ITC data was analyzed with the Origin 7.0 software using a one-site fitting model.

Assay [2] deals with BS69MYND Q546A. The assay is described as follows: ITC binding to BS69MYND Q546A. The arrangement: species or system mouse.
Text: as §1, §2

For assay [3], the system named is BS69MYND W550A. The assay is described as follows: ITC binding to BS69MYND W550A. The arrangement: species or system mouse. To be noted: mutation W550A, EBNA2_381–389 peptide used with additional C-terminal Gly-Tyr.
Text: as §1, §2

Assay [4] has as its target T2, BS69MYND R560A (Mus musculus, UniProt Q8R5C8, R600A).
T2 construct: GST (N, cleaved yes); made in house; host or cells: E. coli BL21 (DE3) RIL
T2 sequence (Q8R5C8 556-602 R600A): T1 sequence (Q8R5C8 556-602 Y572A) with A17Y, R45A
The assay is described as follows: ITC binding to BS69MYND R560A. The conditions noted are these: versus BS69MYND wild type.
Text: as §1, §2

For assay [5], the target named is T3, BS69CC-MYND (Mus musculus, UniProt Q8R5C8).
T3 construct: His6-SUMO (N, cleaved yes); made in house; host or cells: E. coli BL21 (DE3) RIL
T3 sequence (Q8R5C8 480-602): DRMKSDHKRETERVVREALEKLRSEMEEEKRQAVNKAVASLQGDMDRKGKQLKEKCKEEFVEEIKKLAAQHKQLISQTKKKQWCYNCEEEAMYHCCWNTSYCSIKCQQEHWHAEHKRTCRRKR
The assay is described as follows: ITC binding to BS69CC-MYND wild type. The conditions noted are these: EBNA2_435–445, peptide titrated into BS69CC-MYND, 5°C, 20 mM Tris-HCl pH 7.5, 100 mM NaCl, 2 mM DTT, one-site fitting, read-out: dissociation constant (K d).
Text: as §1, §2

Assay [6] concerns the target T4, BS69MYND (Mus musculus, UniProt Q8R5C8).
T4 construct: GST (N, cleaved yes); made in house; host or cells: E. coli BL21 (DE3) RIL
T4 sequence (Q8R5C8 556-602): T1 sequence (Q8R5C8 556-602 Y572A) with A17Y
The assay is described as follows: ITC binding to BS69MYND wild type. To be noted: EBNA2_435–445, peptide titrated into BS69MYND, 5°C, 20 mM Tris-HCl pH 7.5, 100 mM NaCl, 2 mM DTT, one-site fitting, read-out: dissociation constant (K d).
Text: as §1, §2

Assay [7] concerns BS69CC-MYND Q546A. The assay is described as follows: ITC binding to BS69CC-MYND Q546A. Further details: species or system mouse. The conditions noted are these: S1D Fig; ITC parameters could not be reliably determined.
Text: as §1, §2

Assay [8] has as its system BS69CC-MYND Q546A/W550A. The assay is described as follows: ITC binding to BS69CC-MYND Q546A/W550A. Further details: species or system mouse. The conditions noted are these: S1E Fig; ITC parameters could not be reliably determined.
Text: as §1, §2

Where a chain is given by its changes, count along the chain named. Ends that are not written are not given here.

Turning to H-SMPSLEPVLGY-NH2 [EBNA2_381–389], the “decrease of BS69MYND-EBNA2_381–389 binding by mutation Y532A” value in assay [1] is reported as “about 3 fold”. In addition, in assay [2] (mutation Q546A, EBNA2_381–389 peptide used with additional C-terminal Gly-Tyr), the “interaction with BS69MYND Q546A” value was “largely abolished the interaction”. The “interaction with BS69MYND W550A” value in assay [3] was “largely abolished the interaction”. Further, the “decrease of BS69MYND-EBNA2_381–389 binding by mutation R560A” value in assay [4] is reported as ~10 fold.
Consider EAPILFPDDWY-NH2 [EBNA2_435–445], for which the Kd was determined as 34.9 µM in assay [5] and 93.4 µM in assay [6]. Further, the “effect of Q546A on binding affinity of BS69MYND-EBNA2_435–445 complex” value in assay [2] (BS69MYND Q546A) is on record as “substantially decreases”. Besides, in assay [7], the “ITC heat measurements with BS69CC-MYND Q546A” value is “significantly lower than those of Fig 2H”. Moreover, in assay [8], the “ITC heat measurements with BS69CC-MYND Q546A/W550A” value is listed as “significantly lower than those of Fig 2H”.

For the origin of these results see publication PMC4742278, “BS69/ZMYND11 C-Terminal Domains Bind and Inhibit EBNA2” (PLoS Pathogens, 2016).
